Test results published in patent US20180340933A1, “Soybean Allergy Related Epitopes” (Fraunhofer-Gesellschaft zur Foerderung der angewandten …, priority 2015, published 2018).
Ends that are not written are not given here.

Legend:
Assay type in all cases: binding, human
[1] = system: IgE of sera from soybean-sensitive patients; test: Peptide microarray, immune status of soybean-sensitive patients: IgE detection; conditions: sera from 50 patients, diluted 1:50; positive = signal to noise ratio above 5
Text: (§1) Epitope candidates were supplied externally (Neundorf, University of Cologne, Germany). The peptide is synthesised with the following structure: Ac-N-epitope sequence-C-Ebes-Lys(γ-N3)-amide (Ebes=amino-3,6-dioxaoctyl-succinamic acid). The peptide sequences were based on either the naïve soybean protein sequence (Pr) or the mimotope from phage display experiment (Ph). The peptide length varied between eight and nineteen amino acids. Glass slides were coated with Dibenzocyclooctyl (DBCO). The peptides were immobilized using different concentrations (81 ng/μl, 27 ng/μl or 9 ng/μl) on glymo-covered slides using click chemistry.
(§2) Each slide was blocked for 30 min with PBS containing 0.1% (v/v) Tween-20 and 1% (w/v) BSA, pH 7.4. For the incubation with sera cover slides (HybriWell™. 60 mm×21 mm×0.15) were used. Sera from 50 patients with differently intense prick reaction to soy milk were tested. The slides were incubated with 100 μl sera from the soybean-sensitive patients diluted 1:50 in blocking buffer overnight at 4° C. After two washes in washing buffer (PBS containing 0.1% (v/v) Tween-20, pH 7.4) the slides were shaken at 200 rpm for 60 min in a mouse-anti human IgE antibody (Abcam, Cambridge, UK, ab99834) diluted to 100 ng/ml or goat-anti human IgG antibody Cy5 (Abcam, Cambridge, UK, ab97172) diluted to 100 ng/ml in blocking buffer. After two further washes, bound IgG and IgE were detected by incubating the array for 60 min at room temperature with the secondary Cy5-labeled goat anti-mouse antibody (life technologies, Thermo Fisher Scientific, Waltham, Mass., USA, A10524) diluted to 400 ng/ml in blocking buffer. Fluorescence signals on the array were detected in a microarray reader (Geneprix 4200A) at 635 nm and the data were evaluated using GenePix® Pro 6 software to determine the signal intensity of each peptide spot. The software calculated the signal to noise ratio (SNR) for every spot. An overall threshold of 5 signal to noise ratio units was set, and signals above this threshold were assumed to indicate positive recognition by the patient sera.

[2] = system: antibodies (IgE and IgG) in sera of soybean-protein sensitive patients; test: Peptide microarray, recognition of peptides by patient sera (IgE and IgG, total); conditions: sera from 50 patients
Text: as §1, §2

[3] = system: IgG of sera from soybean-sensitive patients; test: Peptide microarray, immune status of soybean-sensitive patients: IgG detection; conditions: sera from 50 patients, diluted 1:50; positive = signal to noise ratio above 5
Text: as §1, §2

[4] = system: antibodies of serum from patients with soy allergy; test: Phage display affinity selection and panning (ENTE1 library), sequencing and statistical motif analysis; conditions: for all three epitopes (SEQ ID NO.: 17, 20, 15) recognized by the same patient: 23 patients; for epitope recognized by patients / two epitopes (SEQ ID NO.: 15, SEQ ID NO.: 17) recognized by the same patients: number of patients out of 23; for sequence count (lcount): 2013_S1_2. Panning
Text: Strong immunodominant allergic proteins, such as P34 thiol protease (Gly m Bd 30K), are known to induce allergic reactions, whereas other soybean proteins, although no potent inducers of a primary allergic response, can nevertheless trigger effector responses due to their binding by IgE. […] For example, only 65% of soybean sensitive individuals carry IgE recognizing P34 thiol protease (Gly m Bd 30K), which is considered one of the strongest allergenic soybean proteins (Yang et al., 2011). […] To identify many specific epitopes, i.e. amino acid sequences of soybean proteins, recognized by antibodies of sensitive patients, with high resolution down to the individual amino acids involved, the inventors applied a novel approach using a specific random phage library (EP 14 166 662.8). This phage library is generated using triplet codons with specific limitations, such that most amino acids are regularly represented throughout the entire library. In consequence, the library covers an unusually broad range of sequence variability and allows particular reliable statistical analysis. The library was contacted with serum samples derived from a biobank of 50 different soybean protein sensitive patients. After phage selection, the amino acid sequences that were bound by the patients' antibodies (anti-[allergen antibody] amino acid sequence) were identified by next generation sequencing and the results statistically analyzed. To confirm the allergy relevance of the identified amino acid sequences, their reactivity with patient IgE was determined by peptide arrays. Thereby, the inventors identified more than 300 potentially allergenic epitopes from different soybean proteins. The identified epitopes could be assigned to a total of 23 soybean proteins (Table 1) including P34 thiol protease (Gly m Bd 30K), β-conglycinin (Gly m Bd60 K) and Gly m Bd 28K, which are considered major soybean allergenic proteins (Yang et al., 2011).
24 μg of serum protein from patients with soy allergy were diluted in 2.5 ml PBS and coated in protein binding Immuno™ Tubes with Maxisorp™ for 1 h at 4° C. at 18 rpm (negative control: PBS). The coated tubes were washed with 2.5 ml blocking buffer (5% NFDM/1×PBS) and incubated with 4 ml blocking buffer at 4° C. for at least 15 min (18 rpm). The tubes were washed three times with 4 ml wash buffer I (1×PBS). 1 ml blocking buffer containing 30 μg of non-allergic serum protein and the phage library ENTE1 was added to each tube. The tubes were incubated for 2 h at 4° C. (18 rpm). After incubation, the tubes were washed 5 times with 1 ml 0.1% Tween/1×PBS and subsequently with 0.5% Tween/1×PBS. Then the bound phages were eluted using 1 ml of elution buffer (0.1 M Glycin.HCl pH 2.2). The tubes were incubated 5 min and vortexed several times. The eluate was immediately neutralized with 200 μl neutralization buffer (1 M Tris.HCl pH 8.2). In the first selection round 4×10^11 cfu of the ENTE1-library were used per tube. In the second selection round 1000×the recovered phages were inserted.
TG1 (λ) cells were grown in 250 ml baffled culture flasks in 10 ml dYT at 37° C. until they reached an OD600 about 0.5-1.0. The cells were incubated with eluted phage for 20 min at 37° C. with 100 rpm agitation. After incubation, the solution was immediately poured on dYT-agar plates (25×25 cm) containing 200 μg/ml ampicillin and incubated overnight at 30° C.
After overnight incubation the colonies were resuspended in 25 ml dYT containing 1×10^10 cfu/ml M13K07. The cells were diluted in 25 ml dYT containing 500 μg/ml ampicillin and 1×10^10 cfu/ml M13K07 using a 250 ml baffled culture flasks to obtain a cell density of OD600 0.5. The cells were incubated for 1 h at 37° C. with 180 rpm agitation. Afterwards the culture was growing about 13 h at 30° C. with 180 rpm agitation. […]

Row | Substance | Number of IgE-positive sera [1] | total (IgE- and IgG-positive sera) [2] | Number of IgG-positive sera [3] | other results
1 | VEEEEECEEGQI (peptide P9) [50] | 32 | 50 | 17 | 
2 | HAANVVGNKESQREAR [Peptide P18] | 8 | 9 | 1 | 
3 | SDKYQEEFQPR (peptide P10) [127] | 10 | 12 | 1 | 
4 | SHHDQPRQHA (peptide P4) [28] | 12 | 18 | 6 | 
5 | HITFSREEGSI (peptide P5) [35] | 12 | 14 | 2 | 
6 | QDQEEDEEDE (peptide P20) [104] | 5 | 7 | 2 | 
7 | RRFYLAGNQEQEFL (peptide P15) [126] | 3 | 6 | 2 | 
8 | EVSFASQVLIY (peptide P3) [94] | 6 | 9 | 3 | 
9 | DEGEQPRPFPFPRPR (peptide P7) [54] | 2 | 4 | 2 | 
10 | QHQQ |  |  |  | motive count, first panning ([4]; Serum 1, 1. Panning round): 407 counts; motive count, second panning ([4]; Serum 1, 2. Panning round): 825 counts
11 | NSERD (glycine max) [SEQ ID NO.: 15] |  |  |  | all three epitopes (SEQ ID NO.: 17, 20, 15) recognized by the same patient [4]: one; epitope recognized by patients [4]: 7/23; two epitopes (SEQ ID NO.: 15, SEQ ID NO.: 17) recognized by the same patients [4]: 5/23
12 | GIEPCSKYSQHQQHVQN (glycine max) [SEQ ID NO.: 706] |  |  |  | sequence count (lcount) [4]: 250
13 | GFNLCNRDRPAP (Ac-GFNLCNRDRPAP; not fully specified (C-terminus); also: Ebes linker, place not given here, Lys(azide), place not given here) [Peptide P1, 100] | 4 | 8 | 4 | 
14 | RNQACHA (glycine max) [SEQ ID NO.: 17] |  |  |  | all three epitopes (SEQ ID NO.: 17, 20, 15) recognized by the same patient [4]: one; epitope recognized by patients [4]: 15/23; two epitopes (SEQ ID NO.: 15, SEQ ID NO.: 17) recognized by the same patients [4]: 5/23
15 | GYNPCRQEEDEELHHKC (peptide P19) [104] | 9 | 15 | 6 | 
16 | EIPRPR (glycine max) [SEQ ID NO.: 20] |  |  |  | all three epitopes (SEQ ID NO.: 17, 20, 15) recognized by the same patient [4]: one; epitope recognized by patients [4]: 3/23
17 | GVYNSQVDDEEEQNQRD (peptide P13) [159] | 7 | 8 | 1 | 
18 | HIQEEECEGDL (peptide P8) [50] | 2 | 4 | 2 | 
19 | GEIMCWREVVTQHQQHA (glycine max) [SEQ ID NO.: 707] |  |  |  | sequence count (lcount) [4]: 122
20 | SQSHGFHGLCNRDHNCA (peptide P2) [100] | 7 | 8 | 1 | 
21 | HVVEQEFLD (peptide P14) [126] | 23 | 28 | 5 | 
22 | FDQKESQHFS (peptide P17) [345] | 0 | 2 | 1 | 
23 | EFLKYQQEQG (peptide P12) [127] | 12 | 24 | 12 | 
24 | ISQQDRHRI (peptide P16) [154] | 28 | 42 | 13 | 
25 | KVLFSREEGQQQ (peptide P6) [35] | 21 | 31 | 9 | 
26 | TEKYQQNSSG (peptide P11) [127] | 2 | 5 | 3 | 
